For data set [1], the system named is ovariectomized rats. Put plainly: Serum cholesterol analysis (OVX rat, 4-day dosing). It counts as in vivo, Sprague Dawley rats. Particulars: Rattus norvegicus, po, 96 h, daily for 4 days, read-out: Serum Cholesterol (% decrease vs. OVX). From the text: (§1) Seventy-five day old female Sprague Dawley rats (weight range of 200 to 225g) were obtained from Charles River Laboratories (Portage, MI). The animals were either bilaterally ovariectomized (OVX) or exposed to a Sham surgical procedure at Charles River Laboratories, and then shipped after one week. Upon arrival, they were housed in metal hanging cages in groups of 3 or 4 per cage and had ad libitum access to food (calcium content approximately 0.5%) and water for one week. Room temperature was maintained at 22.2° ± 1.7° C with a minimum relative humidity of 40%. The photoperiod in the room was 12 hours light and 12 hours dark.
(§2) After a one week acclimation period (therefore, two weeks post-OVX) daily dosing with test compound was initiated. 17a-ethynyl estradiol or the test compound were given orally, unless otherwise stated, as a suspension in 1% carboxymethylcellulose or dissolved in 20% cyclodextrin. Animals were dosed daily for 4 days. Following the dosing regimen, animals were weighed and anesthetized with a ketamine: Xylazine (2:1, V:V) mixture and a blood sample was collected by cardiac puncture. The animals were then sacrificed by asphyxiation with CO2, the uterus was removed through a midline incision, and a wet uterine weight was determined.
Blood samples were allowed to clot at room temperature for 2 hours, and serum was obtained following centrifugation for 10 minutes at 3000 rpm. Serum cholesterol was determined using a Boehringer Mannheim Diagnostics high performance cholesterol assay. Briefly the cholesterol was oxidized to cholest-4-en-3-one and hydrogen peroxide. The hydrogen peroxide was then reacted with phenol and 4-aminophenazone in the presence of peroxidase to produce a p-quinone imine dye, which was read spectrophotemetrically at 500 nm. Cholesterol concentration was then calculated against a standard curve. The entire assay was automated using a Biomek Automated Workstation.

The test system of data set [2] is MCF-7 breast adenocarcinoma cells. Put plainly: MCF-7 Proliferation Assay (tritiated thymidine). In kind it is cell-based. Particulars: Homo sapiens, MCF7; MCF-7 cells, 48 hours with drug, tritiated thymidine pulse 4 hours. Here is the method:
MCF-7 breast adenocarcinoma cells (ATCC HTB 22) were maintained in MEM (minimal essential medium, phenol red-free, Sigma, St. Louis, MO) supplimented with 10% fetal bovine serum (FBS) (V/V), L-glutamine (2 mM), sodium pyruvate (1 mM), HEPES {(N-[2-hydroxyethyl]piperazine-N'-[2-ethanesulfonic acid]10 mM}, non-essential amino acids and bovine insulin (1 ug/mL) (maintenance medium). Ten days prior to assay, MCF-7 cells were switched to maintenance medium supplemented with 10% dextran coated charcoal stripped fetal bovine serum (DCC-FBS) assay medium) in place of 10% FBS to deplete internal stores of steroids. MCF-7 cells were removed from maintenance flasks using cell dissociation medium (Ca++/Mg++ free HBSS (phenol red-free) supplemented with 10 mM HEPES and 2 mM EDTA). Cells were washed twice with assay medium and adjusted to 80,000 cells/mL. Approximately […] (8,000 cells) were added to flat-bottom microculture wells (Costar 3596) and incubated at 37° C in a 5% CO2 humidified incubator for 48 hours to allow for cell adherence and equilibration after transfer. Serial dilutions of drugs or DMSO as a diluent control were prepared in assay medium and […] to triplicate microcultures followed by […] assay medium for a final volume of […]. After an additional 48 hours at 37° C in a 5% CO2 humidified incubator, microcultures were pulsed with tritiated thymidine (1 uCi/well) for 4 hours. Cultures were terminated by freezing at -70° C for 24 hours followed by thawing and harvesting of microcultures using a Skatron Semiautomatic Cell Harvester. Samples were counted by liquid scintillation using a Wallac BetaPlace b counter. Results in Table 4 below show the IC50 for certain compounds of the present invention.

Data set [3] relates to ovariectomized rats. Also noted: species or system Sprague Dawley rats. As to conditions: rat, in vivo, po.
Excerpt: as §1, §2
Uteri were kept at 4° C until time of enzymatic analysis. The uteri were then homogenized in 50 volumes of 50 mM Tris buffer (pH - 8.0) containing 0.005% Triton X-100. Upon addition of 0.01% hydrogen peroxide and 10 mM O-phenylenediamine (final concentrations) in Tris buffer, increase in absorbance was monitored for one minute at 450 nm. The presence of eosonophils in the uterus is an indication of estrogenic activity of a compound. The maximal velocity of a 15 second interval was determined over the initial, linear portion of the reaction curve.

The subject of data set [4] is ovariectomized test animals. Put plainly: Osteoporosis Test Procedure (OVX rat, 35-day dosing, distal femur metaphysis X-ray image analysis). It counts as in vivo, Sprague Dawley rats. As to conditions: OVX rats, daily for 35 days, mean ± SEM.
Excerpt: as §1
Following the General Preparation Procedure, infra, the rats were treated daily for 35 days (6 rats per treatment group) and sacrificed by carbon dioxide asphyxiation on the 36th day. The 35 day time period was sufficient to allow maximal reduction in bone density, measured as described herein. At the time of sacrifice, the uteri were removed, dissected free of extraneous tissue, and the fluid contents were expelled before determination of wet weight in order to confirm estrogen deficiency associated with complete ovariectomy. […] The uteri were then placed in 10% neutral buffered formalin to allow for subsequent histological analysis.
The right femurs were excised and digitilized x-rays generated and analyzed by an image analysis program (NIH image) at the distal metaphysis. The proximal aspect of the tibiae from these animals were also scanned by quantitative computed tomography.
In accordance with the above procedures, compounds of the present invention and ethynyl estradiol (EE2) in 20% hydroxypropyl b-cyclodextrin were orally administered to test animals. Distal femur metaphysis data presented in Tables 2 and 3 below are the results of formula I compound treatments compared to intact and ovariectomized test animals. Results are reported as the mean ± the standard error of the mean.

pIC50: −log10 of the molar value. Structures can show the parent of a compound that is named as a salt. Where two headings read alike, the source gives them in different places.

`CCN(CC)CCOc1ccc(Oc2c(-c3ccc(O)cc3)sc3cc(O)ccc23)cc1` [Example 23, [6-Hydroxy-3-[4-[2-(1-N,N-diethylamino)ethoxy]phenoxy]-2-(4-hydroxyphenyl)]benzo[b]thiophene]: in data set [1], the inhibition in vivo at 0.01 mg/kg turned out to be 36.2%, the inhibition in vivo at 0.1 mg/kg is 47.2% and the inhibition in vivo at 1 mg/kg worked out at 66.1%. The compound also had a negative-log IC50 (pIC50) in data set [2] of 10.10. For the same compound, in data set [3] (0.01 mg/kg), the “Uterine EPO (V. max)” value amounted to 3.3. The “Uterine EPO (V. max)” value in data set [3] (0.1 mg/kg) came to 84.3. The “Uterine EPO (V. max)” value in data set [3] (1 mg/kg) was determined as 150.6.
Regarding `Oc1ccc(-c2sc3cc(O)ccc3c2Sc2ccc(OCCN3CCCCC3)cc2)cc1` [Example 53, [6-Hydroxy-3-[4-[2-(1-piperidinyl)ethoxy]-thiophenoxy]-2-(4-hydroxyphenyl)]benzo[b]thiophene], in data set [1], the inhibition in vivo at 0.1 mg/kg was 62.7%, the inhibition in vivo at 1 mg/kg was found to be 57.5% and the inhibition in vivo at 10 mg/kg was 58.7%. In data set [2], this compound showed a pIC50 of 9.55. Also, the “Uterine EPO (V. max)” value in data set [3] (0.1 mg/kg) is on record as 0.9. For the same compound, the “Uterine EPO (V. max)” value in data set [3] (1 mg/kg) came out at 1.3. Moreover, the “Uterine EPO (V. max)” value in data set [3] (10 mg/kg) is 4.8.
For `Oc1ccc(-c2sc3ccccc3c2Oc2ccc(OCCN3CCCC3)cc2)cc1` [Example 3, [3-[4-[2-(1-pyrolidinyl)ethoxy]phenoxy]-2-(4-hydroxyphenyl)]benzo[b]thiophene], in data set [1], the inhibition in vivo at 0.01 mg/kg came out at 50.6%, the inhibition in vivo at 0.1 mg/kg stood at 47.8% and the inhibition in vivo at 1 mg/kg amounted to 49.2%. This compound also gave a pIC50 in data set [2] of 8.40. The “Uterine EPO (V. max)” value in data set [3] (0.01 mg/kg) came out at 1.8. Also, the “Uterine EPO (V. max)” value in data set [3] (0.1 mg/kg) was 4.8. Moreover, in data set [3] (1 mg/kg), the “Uterine EPO (V. max)” value is recorded as 5.4.
Consider `Oc1ccc(-c2sc3cc(O)ccc3c2Oc2ccc(OCCN3CCCC3)cc2)cc1` [Example 21, [6-Hydroxy-3-[4-[2-(1-pyrolidinyl)ethoxy]phenoxy]-2-(4-hydroxyphenyl)]benzo[b]thiophene], for which, in data set [1], the inhibition in vivo at 0.01 mg/kg turned out to be 26.8%, the inhibition in vivo at 0.1 mg/kg amounted to 47.5% and the inhibition in vivo at 1 mg/kg turned out to be 54.4%. In data set [2], this compound showed a pIC50 of 10.30. Moreover, the “Uterine EPO (V. max)” value in data set [3] (0.01 mg/kg) came out at 1.2. Also, the “Uterine EPO (V. max)” value in data set [3] (0.1 mg/kg) came out at 4.8. Moreover, the “Uterine EPO (V. max)” value in data set [3] (1 mg/kg) is listed as 9.3.
On to `COc1ccc(-c2sc3cc(OC)ccc3c2Oc2ccc(OCCN3CCCCC3)cc2)cc1` [Example 10, [6-methoxy-3-[4-[2-(1-piperidinyl)ethoxy]-phenoxy]-2-(4-methoxyphenyl)]benzo[b]thiophene], for which, in data set [1], the inhibition in vivo at 0.1 mg/kg was 50.2%. Further, the inhibition in vivo at 1 mg/kg in data set [1] turned out to be 59%. Also, the inhibition in vivo at 10 mg/kg in data set [1] came to 38.9%. Further, the pIC50 in data set [2] is 8.70. For the same compound, the “Distal Femur Metaphysis (X-ray Image Analysis-Gray Score)” value in data set [4] (Table 3, oral, dose 0.1 mg/kg, OVX control 6.2 ± 1.4, Sham 31.1 ± 6.3) is on record as 15.3 ± 3.0; in data set [4] (Table 3, oral, dose 1.0 mg/kg, OVX control 6.2 ± 1.4, Sham 31.1 ± 6.3), 15.2 ± 3.7; in data set [4] (Table 3, oral, dose 3.0 mg/kg, OVX control 6.2 ± 1.4, Sham 31.1 ± 6.3), 18.5 ± 3.2∗. Also, the entries for the “Uterine EPO (V. max)” value in data set [3] (0.1 mg/kg), in data set [3] (1 mg/kg) and in data set [3] (10 mg/kg) were 12.0, 17.7 and 4.8, respectively.
Take `Oc1ccc(-c2sc3cc(O)ccc3c2Oc2ccc(OCCN3CCCCC3)cc2)cc1` [Example 19, [6-hydroxy-3-[4-[2-(1-piperidinyl)-ethoxy]phenoxy]-2-(4-hydroxyphenyl)]benzo[b]thiophene oxalate]: in data set [1], the inhibition in vivo at 0.01 mg/kg amounted to 25.1%. In addition, the inhibition in vivo at 0.1 mg/kg in data set [1] worked out at 45.3%. The inhibition in vivo at 1 mg/kg in data set [1] was determined as 53.6%. Besides, the pIC50 in data set [2] is 10.55. Further, the “Distal Femur Metaphysis (X-ray Image Analysis-Gray Score)” value in data set [4] (Table 2, oral in 20% hydroxypropyl b-cyclodextrin, dose 0.1 mg/kg, OVX control 8.1 ± 1.8, Sham 27.2 ± 6.0) is 14.7 ± 1.9; in data set [4] (Table 2, oral, dose 1.0 mg/kg, OVX control 8.1 ± 1.8, Sham 27.2 ± 6.0), 15.0 ± 3.5∗; in data set [4] (Table 2, oral, dose 10.0 mg/kg, OVX control 8.1 ± 1.8, Sham 27.2 ± 6.0) it was 15.3 ± 4.0∗. For the same compound, the results for the “Uterine EPO (V. max)” value in data set [3] (0.01 mg/kg), in data set [3] (0.1 mg/kg) and in data set [3] (1 mg/kg) were 2.1, 2.4 and 3.6, respectively.

One may read the pIC50 as −log10 of the IC50, conventionally taken in molar units.

(Values after patent EP0729956B1, “Benzothiophene compounds, intermediates, compositions, and methods” (ELI LILLY AND COMPANY, priority 1995, dated 1996).)
